Read-outs that look alike come from different tables or passages of the source. Starred links: 1 amine or outer side, 2 acyl side, 3 side chain; linkers in the order of their positions; H or OH if unused. Positions of bridges follow the written chain, without caps; N, C: chain ends. Non-standard residues stand in square brackets, D forms with d. Residues, ends and D or L forms follow the SMILES beside them. *: point of attachment. Orn(2-imidazolinyl) = N[C@@H](CCCNC1=NCCN1)C(=O)O; dαMeDab = C[C@](CCN[*:3])(N[*:1])C(=O)[*:2]; dPhg = N[C@@H](C(=O)O)c1ccccc1; Pyridin(2-yl) = c1ccc(*)nc1; Isobutyryl = CC(C)C(=O)*; Orn = NCCC[C@H](N)C(=O)O; Nva = CCC[C@H](N)C(=O)O; Abu = CC[C@H](N)C(=O)O
Columns and labels:
WDR5 = target: T1, WDR5 (Homo sapiens, UniProt P61964); assay: fluorescence polarization (FP) based competitive binding assay to WDR5 protein
T1 construct: N-terminal His-tagged WDR5 protein (residues 24-334), named WDR5Δ23; made in house; host or cells: E. coli Rosetta 2 (DE3)
Description: The plates were incubated at room temperature on a shaker for 3h, and then the mP values were measured using the Tecan Infinite M-1000 plate reader (Tecan U.S., Research Triangle Park, N.C.).

[1] = tested on: MOLM-13 leukemia cells carrying MLL-AF9 fusion; assay: cell viability assay (WST-8), MOLM-13; type: cell-based; details: Homo sapiens, MOLM-13, 96 h, read-out: MOLM-13 IC50 (μM)
[2] = amide bond, 14-membered ring, HATU/DIEA, DMF, with chain assembly
[3] = amide bond, 15-membered ring, HATU/DIEA, DMF, with chain assembly

## N-((3R,6S,12R)-6-ethyl-12-methyl-2,5,8,11-tetraoxo-3-phenyl-9-(3-phenylpropyl)-1,4,7,10-tetraazacyclotetradecan-12-yl)isobutyramide
[2]
  ring closure, yield after HPLC: 7%

## N-((3R,6S,9S,12R)-6-ethyl-9-(3-guanidinopropyl)-2,5,8,11-tetraoxo-3-phenyl-1,4,7,10-tetraazacyclotridecan-12-yl)isobutyramide
Amide bond, 13-membered ring, HATU/DIEA, DMF, with chain assembly
  ring closure, yield after HPLC: 24.5%

## N-((3R,6S,12R)-6-ethyl-12-methyl-2,5,8,11-tetraoxo-9-phenethyl-3-phenyl-1,4,7,10-tetraazacyclotetradecan-12-yl)isobutyramide
[2]
  ring closure, yield after HPLC: 7%

## N-((3R,6S,9S,12R)-6-ethyl-9-(3-guanidinopropyl)-12-methyl-2,5,8,11-tetraoxo-3-phenyl-1,4,7,10-tetraazacyclotetradecan-12-yl)isobutyramide
[2]
  ring closure, yield after HPLC: 8.7%

## N-((3R,6S,9S,12R)-6-ethyl-9-(3-guanidinopropyl)-2,5,8,11-tetraoxo-3-phenyl-1,4,7,10-tetraazacyclohexadecan-12-yl)isobutyramide
Amide bond, 16-membered ring, HATU/DIEA, DMF, 5.0 mM, with chain assembly
  ring closure, yield after HPLC: 12.7%

## N-((3S,6S,9S,12R)-6-ethyl-12-methyl-9-(3-(3-methylguanidino)propyl)-2,5,8,11-tetraoxo-3-phenyl-1,4,7,10-tetraazacyclotetradecan-12-yl)isobutyramide
[2]
  ring closure, yield after HPLC: 7%

## N-((3R,6S,9S,12R)-6-ethyl-12-methyl-9-(3-(3-methylguanidino)propyl)-2,5,8,11-tetraoxo-3-phenyl-1,4,7,10-tetraazacyclotetradecan-12-yl)isobutyramide
[2]
  ring closure, yield after HPLC: 15.4%

## N-((3R,6S,9S,12R)-6-ethyl-9-(3-guanidinopropyl)-2,5,8,11-tetraoxo-3-phenyl-1,4,7,10-tetraazacyclopentadecan-12-yl)isobutyramide
[3]
  ring closure, yield after HPLC: 21.5%

## N-((3R,6S,9S,12R)-6-ethyl-9-(3-guanidinopropyl)-12-methyl-2,5,8,11-tetraoxo-3-phenyl-1,4,7,10-tetraazacyclopentadecan-12-yl)isobutyramide
[3]
  ring closure, yield after HPLC: 19.4%

## CC[C@@H]1NC(=O)[C@H](CCCNC(=N)NS(=O)(=O)c2c(C)c(C)c3c(c2C)CC(C)(C)O3)NC(=O)[C@](C)(NC(=O)C(C)C)CC=CCN(C)C(=O)[C@@H](c2ccc(F)cc2)NC1=O
From (R)—N-((6S,9S,12R)-9-ethyl-12-(4-fluorophenyl)-1-imino-14-methyl-7,10,13-trioxo-1-(2,2,4,6,7-pentamethyl-2,3-dihydrobenzofuran-5-sulfonamido)-2,8,11,14-tetraazaheptadec-16-en-6-yl)-2-isobutyramido-2-methylpent-4-enamide, rcm bond, 16-membered ring, Hoveyda-Grubbs II (0.5+0.5 eq), CH2Cl2, 45.0 °C, 3 steps
  ring closure, yield after HPLC: 11%

## N-((3R,6S,12R)-9-(3-amino-3-oxopropyl)-6-ethyl-12-methyl-2,5,8,11-tetraoxo-3-phenyl-1,4,7,10-tetraazacyclotetradecan-12-yl)isobutyramide
[2]
  ring closure, yield after HPLC: 17%

## CC[C@@H]1NC(=O)[C@H](CCCN/C(=N\C)NC)NC(=O)[C@](C)(NC(=O)C(C)C)CC=CCNC(=O)[C@@H](c2ccccc2)NC1=O
From (R)—N-((8S,11S,14R,Z)-11-ethyl-3-(methylamino)-9,12,15-trioxo-14-phenyl-2,4,10,13,16-pentaazanonadeca-2,18-dien-8-yl)-2-isobutyramido-2-methylpent-4-enamide, rcm bond, 16-membered ring, Hoveyda-Grubbs II (0.5 eq), CH2Cl2, 25.0 °C, 3 steps
  ring closure, yield after HPLC: 27%

## CC[C@@H]1NC(=O)[C@H](CCCNC(=N)NS(=O)(=O)c2c(C)c(C)c3c(c2C)CC(C)(C)O3)NC(=O)[C@](C)(NC(=O)C(C)C)CC=CCCNC(=O)[C@@H](c2ccccc2)NC1=O
From iPrCO-(R)-αMe-allylGly-Arg(Pbf)-Abu-dPhg-NH-(but-3-enyl)?, rcm bond, 17-membered ring, Hoveyda-Grubbs II (0.5 eq), CH2Cl2, 25.0 °C, 3 steps
  ring closure, yield after HPLC: 28%

## CC[C@@H]1NC(=O)[C@H](CCCNC(=N)NS(=O)(=O)c2c(C)c(C)c3c(c2C)CC(C)(C)O3)NC(=O)[C@](C)(NC(=O)C(C)C)CC=CCNC(=O)[C@@H](c2ccccc2)NC1=O
From iPrCO-(R)-αMe-allylGly-Arg(Pbf)-Abu-dPhg-NH-allyl?, rcm bond, 16-membered ring, Hoveyda-Grubbs II (0.5 eq), CH2Cl2, 25.0 °C, 3 steps
  ring closure, yield after HPLC: 53%

## N-((3R,6S,9S,12R)-6-ethyl-9-(3-guanidinopropyl)-2,5,8,11-tetraoxo-3-phenyl-1,4,7,10-tetraazacyclotetradecan-12-yl)isobutyramide
[2]
  ring closure, yield after HPLC: 21.7%

## CC[C@@H]1NC(=O)[C@H](CCCN/C(=N\C)NS(=O)(=O)c2c(C)c(C)c3c(c2C)CC(C)(C)O3)NC(=O)[C@](C)(NC(=O)C(C)C)CC=CCNC(=O)[C@@H](c2ccccc2)NC1=O
From (R)—N-((8S,11S,14R,E)-11-ethyl-9,12,15-trioxo-3-(2,2,4,6,7-pentamethyl-2,3-dihydrobenzofuran-5-sulfonamido)-14-phenyl-2,4,10,13,16-pentaazanonadeca-2,18-dien-8-yl)-2-isobutyramido-2-methylpent-4-enamide, rcm bond, 16-membered ring, Hoveyda-Grubbs II (0.5 eq), CH2Cl2, 25.0 °C, 3 steps
  ring closure, yield after HPLC: 75%

## CC[C@@H]1NC(=O)[C@H](CCCNC2=NCCN2)NC(=O)[C@](C)(NC(=O)C(C)C)CCNC(=O)[C@@H](c2ccccc2)NC1=O [Cpd. No. 17, N-((3R,6S,9S,12R)-9-(3-((4,5-dihydro-1H-imidazol-2-yl)amino)propyl)-6-ethyl-12-methyl-2,5,8,11-tetraoxo-3-phenyl-1,4,7,10-tetraazacyclotetradecan-12-yl)isobutyramide] (Isobutyryl-[dαMeDab][Orn(2-imidazolinyl)][Abu][dPhg]; lactam 1-C)
WDR5
  IC50: 2.4 nM
  Ki: < 1 nM
[1]
  IC50: 0.088 µM

## CCC[C@@H]1NC(=O)[C@H](CCCNC(=N)N)NC(=O)[C@](C)(NC(=O)C(C)C)CCNC(=O)[C@@H](c2ccccc2)NC1=O [Cpd. No. 88, N-((3R,6S,9S,12R)-9-(3-guanidinopropyl)-12-methyl-2,5,8,11-tetraoxo-3-phenyl-6-propyl-1,4,7,10-tetraazacyclotetradecan-12-yl)isobutyramide] (Isobutyryl-[dαMeDab]R[Nva][dPhg]; lactam 1-C)
WDR5
  IC50: 2.38 nM
  Ki: < 1 nM
[1]
  IC50: 6.33 µM

## CC[C@@H]1NC(=O)[C@H](CCCNC(=N)NS(=O)(=O)c2c(C)c(C)c3c(c2C)CC(C)(C)O3)NC(=O)[C@](C)(NC(=O)C(C)C)CC=CCN(C)C(=O)[C@@H](c2ccc(Cl)cc2)NC1=O
From (R)—N-((6S,9S,12R)-12-(4-chlorophenyl)-9-ethyl-1-imino-14-methyl-7,10,13-trioxo-1-(2,2,4,6,7-pentamethyl-2,3-dihydrobenzofuran-5-sulfonamido)-2,8,11,14-tetraazaheptadec-16-en-6-yl)-2-isobutyramido-2-methylpent-4-enamide, rcm bond, 16-membered ring, Hoveyda-Grubbs II (0.5+0.5 eq), CH2Cl2, 45.0 °C, 3 steps
  ring closure, yield after HPLC: 11%

## CC[C@@H]1NC(=O)[C@H](CCCNc2ccccn2)NC(=O)[C@](C)(NC(=O)C(C)C)CCNC(=O)[C@@H](c2ccccc2)NC1=O [Cpd. No. 12, N-((3R,6S,9S,12R)-6-ethyl-12-methyl-2,5,8,11-tetraoxo-3-phenyl-9-(3-(pyridin-2-ylamino)propyl)-1,4,7,10-tetraazacyclotetradecan-12-yl)isobutyramide] (Isobutyryl-[dαMeDab][Orn](Pyridin(2-yl))[Abu][dPhg]; lactam 1-C)
WDR5
  IC50: 3.25 nM
  Ki: < 1 nM
[1]
  IC50: > 10 µM

## CC[C@@H]1NC(=O)[C@H](CCCNC(=N)NS(=O)(=O)c2c(C)c(C)c3c(c2C)CC(C)(C)O3)NC(=O)[C@](C)(NC(=O)C(C)C)CC=CCCCCCNC(=O)[C@@H](c2ccccc2)NC1=O
From iPrCO-(R)-αMe-allylGly-Arg(Pbf)-Abu-dPhg-NH-(hept-6-enyl)?, rcm bond, 20-membered ring, Hoveyda-Grubbs II (0.5 eq), CH2Cl2, 25.0 °C, 3 steps
  ring closure, yield after HPLC: 27%

## CC[C@@H]1NC(=O)[C@H](CCCNC(=N)N)NC(=O)[C@](C)(NC(=O)C(C)C)CCNC(=O)[C@@H](c2cccc(Cl)c2)NC1=O [Cpd. No. 84, N-((3R,6S,9S,12R)-3-(3-chlorophenyl)-6-ethyl-9-(3-guanidinopropyl)-12-methyl-2,5,8,11-tetraoxo-1,4,7,10-tetraazacyclotetradecan-12-yl)isobutyramide]
WDR5
  IC50: 1.48 nM
  Ki: < 1 nM
[1]
  IC50: 0.51 µM

## CC[C@@H]1NC(=O)[C@H](CCCNC(=N)N)NC(=O)[C@](C)(NC(=O)C(C)C)CCNC(=O)[C@@H](c2cccc(OC)c2)NC1=O [Cpd. No. 94, N-((3R,6S,9S,12R)-6-ethyl-9-(3-guanidinopropyl)-3-(3-methoxyphenyl)-12-methyl-2,5,8,11-tetraoxo-1,4,7,10-tetraazacyclotetradecan-12-yl)isobutyramide]
WDR5
  IC50: 4 nM
  Ki: < 1 nM
[1]
  IC50: 0.56 µM

## CC[C@@H]1NC(=O)[C@H](CCCNC(=N)NS(=O)(=O)c2c(C)c(C)c3c(c2C)CC(C)(C)O3)NC(=O)[C@](C)(NC(=O)C(C)C)CC=CCCCNC(=O)[C@@H](c2ccccc2)NC1=O
From iPrCO-(R)-αMe-allylGly-Arg(Pbf)-Abu-dPhg-NH-(pent-4-enyl)?, rcm bond, 18-membered ring, Hoveyda-Grubbs II (0.5 eq), CH2Cl2, 25.0 °C, 3 steps
  ring closure, yield after HPLC: 46%

## CC[C@@H]1NC(=O)[C@H](CCCNC(=N)NS(=O)(=O)c2c(C)c(C)c3c(c2C)CC(C)(C)O3)NC(=O)[C@](C)(NC(=O)C(C)C)CC=CCN(C)C(=O)[C@@H](c2ccccc2)NC1=O
From (R)—N-((6S,9S,12R)-9-ethyl-1-imino-14-methyl-7,10,13-trioxo-1-(2,2,4,6,7-pentamethyl-2,3-dihydrobenzofuran-5-sulfonamido)-12-phenyl-2,8,11,14-tetraazaheptadec-16-en-6-yl)-2-isobutyramido-2-methylpent-4-enamide, rcm bond, 16-membered ring, Hoveyda-Grubbs II (0.5+0.5 eq), CH2Cl2, 45.0 °C, 3 steps
  ring closure, yield after HPLC: 18%

## CC[C@@H]1NC(=O)[C@H](CCCNC(=N)N)NC(=O)[C@](C)(NC(=O)C(C)C)CCNC(=O)[C@@H](c2ccc3ccccc3c2)NC1=O [Cpd. No. 82, N-((3R,6S,9S,12R)-6-ethyl-9-(3-guanidinopropyl)-12-methyl-3-(naphthalen-2-yl)-2,5,8,11-tetraoxo-1,4,7,10-tetraazacyclotetradecan-12-yl)isobutyramide]
WDR5
  IC50: 2.3 nM
  Ki: < 1 nM
[1]
  IC50: 0.054 µM

## N-((3R,6S,9S,12R)-6-ethyl-12-methyl-2,5,8,11-tetraoxo-3-phenyl-9-(3-ureidopropyl)-1,4,7,10-tetraazacyclotetradecan-12-yl)isobutyramide
[2]
  ring closure, yield after HPLC: 6%
